# From patent publication US20210228653A1, “BACILLUS LICHENIFORMIS STRAIN WITH PROBIOTIC ACTIVITY” (EVONIK DEGUSSA GMBH, priority 2016, published 2021)
# Values joined by “and” are separate entries in the source; they are usually repeats but may differ in a detail not shown here. Equal entries are not always repeated.
# Design: species or system broiler chickens (Vencobb 400)
# Conditions: in vivo
substance,measurement,value
Bacitracin Methylene Disalicyclate [BMD],"FCR (feed conversion ratio, feed to gain)",1.42 g/g and 1.74 g/g
same,FCR compared to the control (in words),reduced
same,body weight compared to the control (in words),improved the body weight
